ChEMBL document CHEMBL3797106, “Potent and Selective Agonists of Sphingosine 1-Phosphate 1 (S1P1): Discovery and SAR of a Novel Isoxazole Based Series” (J Med Chem, 2016)

What was measured:
[1] = tested on: Plasma; assay: Ratio drug level in Lewis rat plasma at 0.03 mg/kg, po at 4 hrs to drug level in Lewis rat plasma at 0.03 mg/kg, po at 24 hrs; assay type: ADME, organism-based; details: in vivo
[2] = tested on: Mus musculus; assay: Oral bioavailability in mouse at 10 mg/kg; assay type: ADME, organism-based; details: in vivo
[3] = Mean residence time in rat at 2 mg/kg, iv; assay type: ADME, organism-based; details: in vivo
[4] = tested on: Rattus norvegicus; assay: Reduction of blood lymphocyte level in Lewis rat at 0.3 mg/kg, po measured at 24 hrs by hematology analyzer relative to vehicle-treated control; assay type: functional; parameters: scale not given: the % may be the effect or the level left
[5] = Half life in dog at 1 mg/kg, iv; assay type: ADME, organism-based, Canis lupus familiaris; details: in vivo
[6] = Plasma protein binding in monkey; assay type: ADME, cell-free, Macaca mulatta; details: rhesus monkey, read-out: PPB (converted)
[7] = Oral bioavailability in dog at 1 mg/kg; assay type: ADME, organism-based, Canis lupus familiaris; details: in vivo
[8] = Tmax in dog at 1 mg/kg, po; assay type: ADME, organism-based, Canis lupus familiaris; details: in vivo
[9] = tested on: Mus musculus; assay: Ratio of Cmax to Cmin in mouse at 10 mg/kg, po; assay type: ADME, organism-based; details: in vivo
[10] = tested on: Cynomolgus monkey; assay: Clearance in cynomolgus monkey at 2 mg/kg, iv relative to hepatic blood flow; assay type: ADME, organism-based, Macaca fascicularis; details: in vivo
[11] = Cmax in dog at 1 mg/kg, po; assay type: ADME, organism-based, Canis lupus familiaris; parameters: dose 1 mg/kg, route oral; details: in vivo
[12] = tested on: Rattus norvegicus; assay: Antiarthritic activity in po dosed complete Freund's adjuvant-induced Lewis rat arthritis model assessed as inhibition of paw inflammation administered as qd for 21 days started from day of immunization; assay type: functional, organism-based

Question: For O=C(O)C1CN(Cc2ccc(-c3noc(-c4onc(-c5ccccc5)c4C(F)(F)F)n3)cc2)C1, which Ratio [1] is on record?
Answer: The Ratio was 5.

Question: What about the F [2] of the same compound?
Answer: The F was 71%.

Question: And the MRT [3]?
Answer: The MRT was 14 h.

Question: What about the Activity [4] of the same compound?
Answer: The Activity was 73%.

Question: And the half-life [5]?
Answer: The half-life was 7.4 h.

Question: And the fraction unbound [6]?
Answer: Its fraction unbound is 0.007.

Question: And the bioavailability [7]?
Answer: The bioavailability was 45%.

Question: And the Tmax [8]?
Answer: The Tmax was 8.9 h.

Question: What about the Ratio [9] of the same compound?
Answer: Its Ratio is 2.

Question: What about the CL [10] of the same compound?
Answer: Its CL is 12%.

Question: And the Cmax [11]?
Answer: Its Cmax is 1300 nM.

Question: And the inhibition [12]?
Answer: Its inhibition is “Dose-dependent effect”.
